Reference: US4067997A, “Synergistic microbecidal composition and method” (priority 1976, dated 1978)
≈ marks a conversion by molar mass, not a printed value. Where a name gives a salt, the structure may show the parent alone. Read-outs that look alike come from different tables or passages of the source. Values belong to the molecule of their own block, whether it stands above or below them.

Experiments:
Format in all cases: cell-based
[1] = tested on: nine gram-positive organisms and the yeast/fungus Candida; assay: MIC, broth dilution, over all organisms (Examples I/II); details: for MIC: read-out: MIC range
Protocol: In order to establish comparative bactericidal and fungicidal results with homologous fatty acids, a series of experiments was performed with thirty straight-chain fatty acids and derivatives thereof. Eight different gram-negative and twelve different gram-positive organisms, representing a very broad spectrum of organisms, were used in these experiments including the fungus Candida (a yeast). Additionally, fatty acids were chosen to show the effects of saturation versus unsaturation, in the fatty acid claim. Standard solutions of the fatty acids and their derivatives were prepared by first dissolving the weighed compounds in 1 to 2 ml of 95% ethanol and immediately pouring this solution into 200 ml of Tripticase Soy Broth. These lipid compounds which are insoluble in water and broth precipitated into very small crystals or droplets. The tubes containing the suspension were warmed to approximately 70° C and were then placed in an ultrasonic tank for further solubilization of the lipid derivatives.
Standard solutions (or suspensions) at 1,000 μg/ml were twofold serially diluted with additional broth to a concentration of 125 μg/ml. A 4-ml amount of each dilution was then quickly, and with constant agitation, dispensed into appropriately labeled screw-capped glass tubes (16 by 125 mm). The tubes were sterilized with steam at 15 psi for 15 minutes. After sterilization, all tubes were cooled and incubated overnight at 35° C to insure sterility.
All compounds were compared on a molar (micromoles/milliliter) rather than on a mass basis. In the following lists of organisms used, those followed by a parenthetical number are registered with the American Type Culture Collection (ATCC); the remainder were isolates from Providence Hospital or Northland Laboratory.
Staphylococcus aureus, S. epidermidis, beta-hemolytic streptococci (Group A and non-group A), group D streptococcus, Bacillus subtilis (6051), Sarcina lutea (9431), Micrococcus sp., Candida albicans, Nocardia asteroids (3308), Corynebacterium sp. (10700), and pneumococcus (63001).
One drop (0.04 ± 0.01 ml) of an 18-hr broth culture containing 10^7 and 10^9 organisms/ml was added to each dilution of the test compound, as well as to a tube of plain broth which served as the positive control. After inoculation, the contents of each tube were well mixed, and the tubes were incubated at 35° C in a 5% carbon dioxide + […] atmosphere.
The MIC is defined as the lowest concentration of compound at which no […] evidence of growth was observed when turbidity of the inoculated broth dilutions was compared with control tubes. […] Only a one-tube difference between the bactericidal and bacteriostatic concentrations was normally observed.
Table 5 presents a comparison of the C10 and C12 free acids and their glyceryl derivatives, and Table 6 gives the corresponding ranges of activity.
Standard solutions (1000 μg/ml) of three fatty acids and polyglycerol esters thereof were prepared as described in Example I. Also sucrose esters were prepared by transferring the weighed compounds (0.2 gm. dissolved in 1 ml absolute methanol) into 200 ml of sterile Trypticase Soy Broth (TSB). These standard solutions (1000 μg/ml) were twofold serially diluted with additional sterile broth to a concentration of 125 μg/ml. A 3.8 aliquot of each dilution was asceptically delivered into sterile screw-capped culture tubes. All tubes were incubated overnight at 36° C to insure sterility. The microorganisms used in this example were the same as those used in Example I.
The inoculum, 0.05 ml of an 13-24 hour TSB culture (approximately 10^9 organisms/ml) was asceptically delivered into all dilutions of the compounds, mixed well, and incubated at 36° C. […]

Corynebacterium sp. = assay: MIC on mass basis (Example V procedure)
Protocol: (§1) The essential procedure of Example I was followed with a series of phenolic compounds, with the exception that the test method was conducted on a mass (μg/ml) basis rather than a molecular (mol/ml) basis of the foregoing tests, since the long established phenol-coeffecient test is on a mass rather than molecular basis. Additionally, a different but closely related group of organisms were used in this test, in order to give a complete representative span on gram-negative, gram-positive and fungus organisms. Additionally, the phenolic derivatives chosen for test purposes include a number of derivatives which are presently accepted by the FDA as food-grade phenolic microbicides.

[2] = tested on: Streptococcus faecalis (Group D); assay: MIC on mass basis (Example V procedure); details: Enterococcus faecalis
Protocol: as §1

Streptococcus pyogenes = assay: MIC on mass basis (Example V procedure)
Protocol: as §1

Candida albicans = assay: MIC on mass basis (Example V procedure)
Protocol: as §1
(§2) The same procedure of Example V was repeated but with combinations of mono-laurin (GML).
(§3) The procedure of Example V was repeated with combinations of glycerol mono-laurin (GML) and ethylenediamine tetraacetic acid (EDTA) as the calcium salt and in combination with BHA.

Pseudomonas aeruginosa = assay: MIC on mass basis (Example V procedure)
Protocol: as §1, §2, §3

Staphylococcus aureus = assay: MIC on mass basis (Example V procedure)
Protocol: as §1, §2, §3

Nocardia asteroides = assay: MIC on mass basis (Example V procedure)
Protocol: as §1, §2, §3

Saccharomyces cerevisiae = assay: MIC on mass basis (Example V procedure); details: Saccharomyces cerevisiae
Protocol: as §1, §2, §3

Escherichia coli = assay: MIC on mass basis (Example V procedure); details: Escherichia coli
Protocol: as §1, §2, §3

[3] = Table 16, Nocardia asteroides, no unit in table
[4] = Table 16, Saccharomyces cerevisiae, no unit in table, read-out: MIC
[5] = Table 12, Corynebacterium sp., read-out: MIC
[6] = Table 12, Streptococcus faecalis (Group D), read-out: MIC
[7] = Table 12, Streptococcus pyogenes, read-out: MIC
[8] = Candida albicans, Table 12, Candida albicans, read-out: MIC
[9] = Pseudomonas aeruginosa, Table 12, Pseudomonas aeruginosa, read-out: MIC
[10] = Staphylococcus aureus, Table 12, Staphylococcus aureus, read-out: MIC
[11] = Table 12, Nocardia asteroides, read-out: MIC
[12] = Table 12, Saccharomyces cerevisiae, read-out: MIC
[13] = Table 12, Eschericia coli, read-out: MIC

- MIC ([1]; Table 4, range over the organisms of Table 3): 54 to 109 µM (≈ 12.3 to 24.8 µg/mL)
SMILES: CCCCCCCCCCCC(=O)N(C)C [Lauryl N,N-dimethylamide]

SMILES: O=C(O)CN(CCN(CC(=O)O)CC(=O)O)CC(=O)O [EDTA, ethylenediamine tetraacetic acid]
- MIC (Corynebacterium sp.; Corynebacterium): 1000 µg/mL (≈ 3.42 mM)
- MIC (Corynebacterium sp.; Corynebacterium, read-out: MIC of EDTA alone): 1000 µg/mL
- MIC [2]: > 1000 µg/mL
- MIC ([2]; read-out: MIC of EDTA alone): 5000 µg/mL
- MIC (Streptococcus pyogenes; Streptococcus pyogenes): 1000 µg/mL (≈ 3.42 mM)
- MIC (Streptococcus pyogenes; Streptococcus pyogenes, read-out: MIC of EDTA alone): 1000 µg/mL
- MIC (Candida albicans; Candida albicans, read-out: MIC of EDTA alone): 5000 µg/mL
- MIC (Candida albicans; Table 16, Candida albicans, no unit in table): > 1,000
- MIC (Pseudomonas aeruginosa; Pseudomonas aeruginosa, read-out: MIC of EDTA alone): 5000 µg/mL
- MIC (Pseudomonas aeruginosa; Table 16, Pseudomonas aeruginosa, no unit in table): > 1,000
- MIC (Staphylococcus aureus; Staphylococcus aureus, read-out: MIC of EDTA alone): 5000 µg/mL
- MIC (Staphylococcus aureus; Table 16, Staphylococcus aureus, no unit in table): > 1,000
- MIC (Nocardia asteroides; Nocardia asteroides, read-out: MIC of EDTA alone): 500 µg/mL
- MIC (Nocardia asteroides; [3]): 1,000
- MIC (Saccharomyces cerevisiae; [4]): 1000 µg/mL
- MIC (Saccharomyces cerevisiae; Table 17, 0 amount of GML, read-out: MIC of EDTA alone): 1000 µg/mL
- MIC (Escherichia coli; Table 16, Escherichia coli, no unit in table (Example 5 procedure, mass basis)): > 1000 µg/mL
- MIC (Escherichia coli; read-out: MIC of EDTA alone, Table 17, 0 amount of GML): > 10000 µg/mL

SMILES: CCCCCCCCCCCCN [Dodecylamine HCl]
- MIC [1]: 28 to 112 µM

- MIC (Corynebacterium sp.; [5]): 100 µg/mL (≈ 0.454 mM)
- MIC (Corynebacterium sp.; Table 16, Corynebacterium sp., no unit in table): 100
- MIC [2, 6]: > 5000 µg/mL
- MIC ([2]; Table 16, Streptococcus faecalis (Group D), no unit in table, read-out: MIC): > 1000 µg/mL
- MIC (Streptococcus pyogenes; [7]): 1000 µg/mL (≈ 4.54 mM)
- MIC (Streptococcus pyogenes; Table 16, Streptococcus pyogenes, no unit in table): 1,000
- MIC (Candida albicans; [8]): > 5000 µg/mL
- MIC (Candida albicans; Candida albicans, Table 16, Candida albicans, no unit in table, read-out: MIC): > 1000 µg/mL
- MIC (Pseudomonas aeruginosa; [9]): > 5000 µg/mL
- MIC (Pseudomonas aeruginosa; Pseudomonas aeruginosa, Table 16, Pseudomonas aeruginosa, no unit in table, read-out: MIC): > 1000 µg/mL
- MIC (Staphylococcus aureus; [10]): > 5000 µg/mL
- MIC (Staphylococcus aureus; Staphylococcus aureus, Table 16, Staphylococcus aureus, no unit in table, read-out: MIC): > 1000 µg/mL
- MIC (Nocardia asteroides; [11]): 1000 µg/mL
- MIC (Nocardia asteroides; [3]): 1,000
- MIC (Saccharomyces cerevisiae; [12]): > 5000 µg/mL
- MIC (Saccharomyces cerevisiae; [4]): > 1000 µg/mL
- MIC (Escherichia coli; [13]): > 5000 µg/mL
- MIC (Escherichia coli; Table 16, Escherichia coli, no unit in table (Example 5 procedure, mass basis), read-out: MIC): > 1000 µg/mL
SMILES: Cc1cc(C(C)(C)C)c(O)c(C(C)(C)C)c1 [BHT, 2,6-di-tert-butyl-4-methylphenol]

- MIC (Corynebacterium sp.; [5]): 1000 µg/mL (≈ 4.27 mM)
- MIC [2, 6]: 2500 µg/mL (≈ 10.7 mM)
- MIC (Streptococcus pyogenes; [7]): 1000 µg/mL (≈ 4.27 mM)
- MIC (Candida albicans; [8]): > 5000 µg/mL
- MIC (Pseudomonas aeruginosa; [9]): > 5000 µg/mL
- MIC (Staphylococcus aureus; [10]): 5000 µg/mL
- MIC (Nocardia asteroides; [11]): 500 µg/mL
- MIC (Saccharomyces cerevisiae; [12]): > 5000 µg/mL
- MIC (Escherichia coli; [13]): > 5000 µg/mL
SMILES: CCc1cc(C(C)(C)C)c(O)c(C(C)(C)C)c1 [C2, 2,6-di-tert-butyl-4-ethylphenol]

SMILES: CCCCCCCC/C=C\CCCCCCCC(=O)O [Oleic acid]
- Activity in words ([1]; at the concentration tested): very limited activity

SMILES: CCCCCC/C=C\CCCCCCCC(=O)O [Palmitoleic]
- MIC ([1]; Table 2, range over the organisms of Table 1): 24 to 983 µM (≈ 6.11 to 250 µg/mL)

- MIC (Corynebacterium sp.; [5]): 5000 µg/mL (≈ 14.4 mM)
- MIC [2, 6]: > 5000 µg/mL
- MIC (Streptococcus pyogenes; [7]): > 5000 µg/mL
- MIC (Candida albicans; [8]): > 5000 µg/mL
- MIC (Pseudomonas aeruginosa; [9]): > 5000 µg/mL
- MIC (Staphylococcus aureus; [10]): > 5000 µg/mL
- MIC (Nocardia asteroides; [11]): 5000 µg/mL
- MIC (Saccharomyces cerevisiae; [12]): > 5000 µg/mL
- MIC (Escherichia coli; [13]): > 5000 µg/mL
SMILES: CCCCCCCCCCc1cc(C(C)(C)C)c(O)c(C(C)(C)C)c1 [C10, 2,6-di-tert-4-decylphenol]

SMILES: CCCCCCCCCCCCCC(=O)O [Myristic]
- MIC [1]: 218 to 4370 µM (≈ 49.8 to 998 µg/mL)

SMILES: CCCCCCCCCCCCCCCCCC(=O)O [Stearic, stearic acid]
- Inhibition in words ([1]; saturated acids, Table 1): not inhibitory at all
